In ChEMBL document CHEMBL1125401, “CoMFA analysis of the interactions of antipicornavirus compounds in the binding pocket of human rhinovirus-14” (J Med Chem, 1992) one finds MIC data, which are given here for nine compounds.

Each structure is given as a SMILES string. ≈ marks a conversion by molar mass, not a printed value.

For this assay, the system named is rhinovirus B14. The assay can be described thus: Compound was evaluated for inhibitory effect against human Rhinovirus-14. The format is functional.

With `Cc1cc(CCCCCOc2ccc(C3=NCCO3)cc2)on1`, the MIC (Rhinovirus B, read-out: MIC) worked out at 0.51 µM (≈ 0.16 µg/mL).
For the compound `Cc1cc(-c2nnn(C)n2)cc(C)c1OCCCCCc1cc(COCOCCO)no1`, where the note is “Rhinovirus B, read-out: MIC”, the MIC was 0.06 µM (≈ 0.0267 µg/mL).
Consider `CCC1COC(c2ccc(OCCCCCCCc3cc(C)no3)cc2)=N1` (stereo not given), for which the MIC (Rhinovirus B, read-out: MIC) was 0.03 µM (≈ 0.0111 µg/mL).
For `Cc1cc(CCCCCOc2ccc(C3=NCCO3)cc2Cl)on1`, the MIC (Rhinovirus B, read-out: MIC) was 2.41 µM (≈ 0.841 µg/mL).
`OCCOCOCc1cc(CCCCCOc2c(Cl)cc(C3=NCCO3)cc2Cl)on1` showed an MIC of 0.09 µM (≈ 0.0426 µg/mL). Further, the MIC (Rhinovirus B, read-out: MIC) worked out at 0.06 µM (≈ 0.0284 µg/mL).
For the compound `Cc1cc(CCCCCOc2ccc(-c3nc(C)c(C)o3)cc2)on1`, the MIC (Rhinovirus B, read-out: MIC) stood at 0.14 µM (≈ 0.0477 µg/mL).
The same measure, in the same setting: the result for `Cc1cc(CCCCCCCOc2ccc(C3=NC(C)CO3)cc2)on1` (stereo not given) reads 0.05 µM (≈ 0.0178 µg/mL); that for `Cc1cc(CCCCCCCOc2ccc(C3=NC(C)(C)CO3)cc2)on1`, 0.16 µM (≈ 0.0593 µg/mL).
With `Cc1cc(CCCCCOc2c(Cl)cc(C3=NCCO3)cc2Cl)on1` [WIN-54954], the MIC (Rhinovirus B, read-out: MIC) is 1.5 µM (≈ 0.575 µg/mL).
